The target in data set [1] is T1, ApNTD (Aeropyrum pernix, UniProt Q9YFY3, E129A).
T1 construct: gene thrS2; N-terminal editing domain, residues 1-136 of ThrRS-2, untagged, expressed in E. coli, homodimer
The data set is described as follows: X-ray crystal structure. It counts as binding. Conditions: editing (amino-acid/adenosine) pocket.

In data set [2] the target is T2, PabNTD (Pyrococcus abyssi, UniProt Q9UZ14, K121M).
T2 construct: gene thrS; N-terminal editing domain, residues 1-143 of ThrRS, untagged, expressed in E. coli, homodimer; all rows are K121M
The data set is described as follows: X-ray crystal structure. It counts as binding. Conditions: editing (amino-acid/adenosine) pocket.

Data set [3] addresses T3, ApNTD (Aeropyrum pernix, UniProt Q9YFY3, K116M).
T3 construct: gene thrS2; N-terminal editing domain, residues 1-136 of ThrRS-2, untagged, expressed in E. coli, homodimer
The data set is described as follows: X-ray crystal structure. The format is binding. Conditions: editing (amino-acid/adenosine) pocket.

Data set [4] deals with T4, ApNTD (Aeropyrum pernix, UniProt Q9YFY3).
T4 construct: gene thrS2; N-terminal editing domain, residues 1-136 of ThrRS-2, untagged, expressed in E. coli, homodimer
T4 sequence (Q9YFY3 1-136): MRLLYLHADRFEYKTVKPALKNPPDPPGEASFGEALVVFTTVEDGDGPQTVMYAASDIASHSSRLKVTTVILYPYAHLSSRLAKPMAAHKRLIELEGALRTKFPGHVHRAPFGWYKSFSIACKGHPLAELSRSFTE
The data set is described as follows: ITC (also crystal structure). It counts as binding.

For data set [5], the target named is T5, ApNTD (Aeropyrum pernix, UniProt Q9YFY3, Y115A).
T5 construct: gene thrS2; N-terminal editing domain, residues 1-136 of ThrRS-2, untagged, expressed in E. coli, homodimer
The data set is described as follows: X-ray crystal structure. It counts as binding. Conditions: editing (amino-acid/adenosine) pocket.

Data set [6] addresses N-terminal editing domain (NTD) of threonyl-tRNA synthetase from Aeropyrum pernix (Aeropyrum pernix). The data set is described as follows: crystal structure; co-crystals with the substrate analogues L-Ser3AA or L-Thr3AA, grown at 4 °C; ApNTD in P4(1)2(1)2 with one monomer in the asymmetric unit (dimer by the crystallographic twofold); MjNTD in C2 and P2(1) with six and four monomers in the asymmetric unit.

Data set [7] deals with the molecule itself. Described as above.

T2 sequence (Q9UZ14 1-143 K121M): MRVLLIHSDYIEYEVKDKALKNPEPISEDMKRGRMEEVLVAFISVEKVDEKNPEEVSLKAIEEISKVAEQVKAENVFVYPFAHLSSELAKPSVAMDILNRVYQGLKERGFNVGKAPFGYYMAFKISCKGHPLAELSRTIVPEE
T3 sequence (Q9YFY3 1-136 K116M): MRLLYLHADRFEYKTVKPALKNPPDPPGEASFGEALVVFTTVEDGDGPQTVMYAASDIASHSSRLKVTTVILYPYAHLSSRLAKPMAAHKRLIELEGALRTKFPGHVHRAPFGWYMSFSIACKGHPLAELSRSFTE
T1 sequence (Q9YFY3 1-136 E129A): as the sequence (Q9YFY3 1-136 K116M) above, with M116K, E129A counted along it
T5 sequence (Q9YFY3 1-136 Y115A): as the sequence (Q9YFY3 1-136 K116M) above, with Y115A, M116K counted along it

`C[C@@H](O)[C@H](N)C(=O)N[C@H]1[C@@H](O)[C@H](n2cnc3c(N)ncnc32)O[C@@H]1CO` [L-threonyl-3′-aminoadenosine]: the X-ray crystal structure entry in data set [1] was “E129A mutant also showed a loosening of interactions upon L-Thr3AA binding”; in data set [2] it was “We solved the crystal structure of K121M mutant of PabNTD”; in data set [3] it was “K116M mutant of ApNTD with L-Ser3AA and L-Thr3AA”; in data set [5], “no such loosening was observed in the case of Y115A”. In addition, the Kd (commonly the free concentration of one partner at which half of the binding sites on the other are occupied at equilibrium, for simple one-to-one binding) in data set [4] amounted to 13.4 ± 2.9 µM.
Regarding `Nc1ncnc2c1ncn2[C@@H]1O[C@H](CO)[C@@H](NC(=O)[C@@H](N)CO)[C@H]1O` [L-seryl-3′-aminoadenosine], in data set [2], the X-ray crystal structure result is on record as “We solved the crystal structure of K121M mutant of PabNTD”. In addition, the affinity in data set [4], expressed as Kd, was 1 ± 0.3 µM.
On to “N-terminal editing domain (NTD) of threonyl-tRNA synthetase from Aeropyrum pernix (domain or fragment)”, for which the stoichiometry N – broadly, a count of units in the complex or per binding partner – in data set [6] was 2.

B1: N-terminal editing domain (NTD) of threonyl-tRNA synthetase from Methanococcus jannaschii (domain or fragment, UniProt Q58597 5-143, looked up)
chain: LIHSDYLEFEAKEKTKIAEETENLKGKLDECLACFIAVEREDENNPEGTAIGAVEEIEKVANQLKVNNIVVYPYAHLSSDLSSPETAVKVLKDIESILKERGYNVLRAPFGWYKAFKISCKGHPLSELSRKIVAKEEKK
notes: N-terminal editing domain of ThrRS of Methanococcus jannaschii, residues 5-143; untagged construct (stop codon in the reverse primer); Crystallised with the substrate analogues L-Ser3AA or L-Thr3AA; also called MjNTD; MjNTD wild type
B1: the “stoichiometry N” value in data set [7] stood at 2.

For the origin of these results see paper PMC4491819, “Specificity and catalysis hardwired at the RNA–protein interface in a translational proofreading enzyme” (Nature Communications, 2015).
